In PubChem BioAssay (NCI):
Several values for one entry are separate records, joined by “and”; a condition that tells them apart may be missing. Equal values may be shown once.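 Each compound was tested at five concentrations against cells in 96-well plates for 48 hours. GI50 is the concentration that inhibits growth by half. TGI denotes the concentration required for complete inhibition of growth.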

Columns and labels:
Test in all cases: inhibition of tumour cell growth, NCI panel, 48 h
HL-60(TB) leukemia = test system: HL-60(TB) leukemia
SW-620 colon = test system: SW-620 colon
RXF 393 renal = test system: RXF 393 renal
HT29 colon = test system: HT29 colon
SK-MEL-2 melanoma = test system: SK-MEL-2 melanoma
UACC-257 melanoma = test system: UACC-257 melanoma
DU-145 prostate = test system: DU-145 prostate
SK-MEL-28 melanoma = test system: SK-MEL-28 melanoma
OVCAR-3 ovarian = test system: OVCAR-3 ovarian
COLO 205 colon = test system: COLO 205 colon

| Compound | GI50 (HL-60(TB) leukemia) | TGI (HL-60(TB) leukemia) | GI50 (SW-620 colon) | TGI (SW-620 colon) | GI50 (RXF 393 renal) | TGI (RXF 393 renal) | GI50 (HT29 colon) | TGI (HT29 colon) | GI50 (SK-MEL-2 melanoma) | TGI (SK-MEL-2 melanoma) | GI50 (UACC-257 melanoma) | TGI (UACC-257 melanoma) | GI50 (DU-145 prostate) | TGI (DU-145 prostate) | GI50 (SK-MEL-28 melanoma) | TGI (SK-MEL-28 melanoma) | GI50 (OVCAR-3 ovarian) | TGI (OVCAR-3 ovarian) | GI50 (COLO 205 colon) | TGI (COLO 205 colon) |
| --- | --- | --- | --- | --- | --- | --- | --- | --- | --- | --- | --- | --- | --- | --- | --- | --- | --- | --- | --- | --- |
| COc1ccc(Cn2cc3c(c2-c2cc(OC)c(OC)c(OC)c2)CCc2cnoc2-3)cc1[N+](=O)[O-] | 0.412 µM | 7.98 µM | 0.482 µM | > 100 µM | 1.02 µM | 6.22 µM | 0.411 µM | 2.28 µM | 0.366 µM | 10.3 µM | 4.03 µM | > 100 µM | 1.91 µM | > 21.3 µM | 3.39 µM | > 100 µM | 0.441 µM | 3.09 µM | 0.73 µM | 3.28 µM |
| COc1cnc2c(c1)C(=O)c1c-2n(CCCN2CCCC2)c(=O)c2cc(F)ccc12 | 0.311 µM | 1.13 µM | 0.199 µM | 2.27 µM | 0.36 µM | 1.53 µM | 0.209 µM | 1.1 µM | 1.39 µM | 10.4 µM | 0.396 µM | 2.2 µM | 0.211 µM | 1.34 µM | 2.49 µM | 14.7 µM | 0.307 µM | 1.51 µM | 0.109 µM | 2.64 µM |
| CN(CCCl)c1ccc(/C=C/C2=[N+](C)c3ccccc3C2(C)C)cc1 | 0.265 µM | 0.756 µM | 0.494 µM | 14 µM | 1.57 µM | 10.5 µM | 0.307 µM | 11.2 µM | 1.33 µM | 5.62 µM | 0.657 µM | 7.57 µM | 0.598 µM | 15.3 µM | 0.685 µM | 15.6 µM | 0.314 µM | 3.15 µM | 0.339 µM | 1.56 µM |
| Cc1ccc(S(=O)(=O)Cc2nc(-c3ccc(C(=O)NCc4cccnc4)cc3)oc2C)cc1 | 1.97 µM | > 100 µM | < 0.01 µM | > 100 µM | 27.6 µM | > 100 µM | 0.0784 µM | > 100 µM | 5.45 µM | > 86.3 µM | > 100 µM | > 100 µM | 0.0907 µM | > 100 µM | 15.5 µM | > 100 µM | 8.1 µM | > 100 µM | 0.492 µM | > 100 µM |
| Nc1nc(N)c2nc(CNc3ccc(C(=O)NC(CCCNC(=O)c4ccccc4C(=O)O)C(=O)O)cc3)cnc2n1 (configuration not stated) | 0.00049 µM | > 100 µM | 0.000866 µM | > 100 µM |  | > 100 µM | 0.00102 µM | > 100 µM | > 100 µM | > 100 µM | 0.0155 µM | > 100 µM |  | > 100 µM |  | > 100 µM | < 0.0157 µM and 0.0676 µM | > 100 µM | 0.0765 µM | > 100 µM |
| N[C@@H]1CCCN(c2c(/C=C3\SC(=O)NC3=O)cccc2-c2ccccc2)C1 | 17.8 µM | 42.6 µM | 12.8 µM | 28.3 µM | 6.06 µM | 20.2 µM | 12.8 µM | 27.8 µM | 15.2 µM | 30.3 µM | 10.9 µM | 23.5 µM | 13.7 µM | 28.1 µM | 13.1 µM | 27.8 µM | 15.3 µM | 29.4 µM | 11.6 µM | 25.5 µM |
